pIC50: −log10 of the molar value. “Also recorded” adds a separate entry of the source. Where two headings read alike, the source gives them in different places.
Experiments:
[1] = Metabolism in human liver microsomes; assay type: in vitro ADME; details: 0.4 mg/mL protein; for microsomal CLint at 1 μM: human, liver microsomes, read-out: CLint of authentic metabolite incubated; for average individual metabolite formed over a 60 min incubation of 1: substrate 1 at 1 μM, percentage of initial substrate concentration, ND = not detected
Method: (§1) Following the protocols described by Charman et al.,[28]1 was incubated at 37 °C with human, rat, and rhesus monkey liver microsomes. For the determination of intrinsic clearance, the substrate concentration was 1 μM and the protein concentration was 0.4 mg/mL; for qualitative metabolite identification studies, the substrate and protein concentrations were 10 μM and 1 mg/mL, respectively. The reaction was initiated by the addition of an NADPH-regenerating buffer system, and the samples were incubated for up to 60 (for Clint determination) or 180 min (for additional metabolite identification). Samples without the test compound and without NADPH were also incubated and used as controls. The reaction was quenched by protein precipitation with the addition of an equal volume of ice-cold acetonitrile solution (containing diazepam as an internal standard), followed by vortexing and centrifugation for 3 min at 10000 rpm. The supernatant was removed and analyzed by LC/MS. LC/MS analysis was conducted using a Waters Micromass Xevo G2 QTOF MS coupled to a Waters Acquity UPLC. For metabolite identification, a Supelco Ascentis Express Amide column (50 × 2.1 mm, 2.7 μm) was used with an acetonitrile–water gradient (containing 0.05% formic acid), a flow rate of 0.4 mL/min, a gradient cycle time of 6 min, and an injection volume of 5 μL. MS analysis was conducted using positive mode electrospray ionization under MSE acquisition mode, which allows simultaneous acquisition of MS spectra at low and high collision energies. The identity of putative metabolites was confirmed by the accurate mass and a comparison of the retention times and MS/MS fragmentation patterns with authentic metabolites where available. For metabolite quantitation, the method described below for the analysis of plasma samples was used.

[2] = Metabolism in rhesus monkey liver microsomes; assay type: in vitro ADME; details: 0.4 mg/mL protein; for microsomal CLint at 1 μM: rhesus monkey, liver microsomes, read-out: CLint of authentic metabolite incubated; for average individual metabolite formed over a 60 min incubation of 1: substrate 1 at 1 μM, percentage of initial substrate concentration, ND = not detected
Method: as §1

[3] = Metabolism in rat liver microsomes; assay type: in vitro ADME; details: 0.4 mg/mL protein; for CLint of authentic metabolite incubated / microsomal CLint at 1 μM: 1 μM substrate, NADPH, 37 °C, 60 min, single incubation; for microsomal CLint at 1 μM: rat, liver microsomes, read-out: CLint of authentic metabolite incubated; for average individual metabolite formed over a 60 min incubation of 1: substrate 1 at 1 μM, percentage of initial substrate concentration, ND = not detected
Method: as §1

[4] = Pharmacokinetics in rats after IV and PO administration; assay type: in vivo, male Sprague–Dawley rats; details: for metabolite in urine, percentage of the 1 dose: after IV administration of 1; for dose excreted: male, Sprague-Dawley, rat, urine, after oral administration of 1 at 27 mg/kg, read-out: recovery of metabolite in urine, percentage of the 1 dose
Method: Animal studies were conducted using established procedures in accordance with the Australian Code of Practice for the Care and Use of Animals for Scientific Purposes, and the study protocols were reviewed and approved by the Monash Institute of Pharmaceutical Sciences Animal Ethics Committee. The study was conducted in overnight-fasted male Sprague–Dawley rats weighing 266–292 g. Rats had access to water ad libitum throughout the pre- and postdose sampling period, and access to food was reinstated 4 h postdose. Compound 1 was administered intravenously as a 10 min constant rate infusion via an indwelling jugular vein cannula (1 mL per rat, n = 5 rats) and orally by gavage (10 mL/kg per rat, n = 2–3 rats), and samples of arterial blood and total urine were collected up to 24 h postdose. Arterial blood was collected directly into borosilicate vials (at 4 °C) containing heparin. Blood samples were centrifuged, and the supernatant plasma was removed and stored frozen (−80 °C) until analysis by LC-MS. Plasma samples and calibration standards (prepared in blank rat plasma) were processed by protein precipitation with a 2-fold volume of acetonitrile. LC-MS analysis was conducted using a Waters Micromass Quattro Premier triple-quadrupole mass spectrometer coupled to a Waters Acquity UPLC with a Phenomenex C18 Kinetex column (50 × 2.1 mm, 2.7 μm). Elution was achieved using a methanol–water gradient (containing 8.2 mM formic acid and 1.25 mM ammonium formate) with a flow rate of 0.6 mL/min, a gradient cycle time of 6 min, and an injection volume of 2 μL. MS detection was conducted using positive electrospray ionization with multiple reaction monitoring. Transitions (m/z), cone voltages (V), and CID voltages (V) were as follows: 1, 430.26 > 99.93, 40, 20; 2, 416.27 > 99.80, 30, 20; 3, 402.22 > 99.93, 35, 20; 4, 388.23 > 99.86, 35, 20; 5: 374.25 > 72.01, 35, 25; diazepam (285.25 > […], 40, 25) (used as an internal standard). The quantitation range in plasma was typically 1–10000 ng/mL, and the accuracy and precision were within ±10% and <10%, respectively, for each analyte. Urine samples were analyzed using either a 20- or 200-fold dilution with 50% acetonitrile and assayed against calibration standards prepared in the same solvent.

[5] = test system: P. vivax liver-stage parasites; assay: P. vivax liver-stage in vitro assay, prophylactic mode; assay type: cell-based, Plasmodium vivax
Method: (§2) Compound 1 and its metabolites were tested in both prophylactic and radical cure modes for activity against P. vivax liver-stage parasites.[16],[17] In the prophylactic assay, compounds are added the day after sporozoite invasion into hepatocytes in order to characterize the compound activity against established liver forms with a parasitophorous vacuole membrane (as opposed to activity on preinvasion sporozoites) and prior to complete maturation of hypnozoites into drug-insensitive dormant forms, which appear at about 5 days postinvasion.[18] In the radical cure assay, compounds are added at day 5 postinfection to characterize activity against late-stage schizonts and mature PI4K inhibitor-insensitive hypnozoites.[19] In these experiments, the threshold for activity is 75% inhibition. […] Similarly, as previously described,[20] 10 μM concentrations of 1 and its metabolites were also tested for activity against P. cynomolgi schizont (large forms) and hypnozoite (small forms) liver-stage parasites cultured in rhesus monkey hepatocytes. In these experiments, the threshold for activity is 50% inhibition.
(§3) Compounds were prepared as 20 mM stock solutions in DMSO and tested in an eight-point semilog (1/3) dilution series from 20 μM in 384-well assay plates in both prophylactic and radical cure mode against P. vivax liver-stage parasites as previously described.[16] Following ethical approval from the Institutional Ethics Committee of the Thai Ministry of Public Health, the Ethical Review Committee of Faculty of Tropical Medicine, Mahidol University (TMEC 11-008 and 14-016), the Oxford Tropical Medicine Ethical Committee, Oxford University, England (OxTREC 17-11 and 40–14), and the Cambodian National Ethics Committee for Health Research (101NECHR), isolates of P. vivax infected blood were collected from patent volunteers in Tak province, Thailandm and Mondulkiri province, Cambodia. Samples were collected by venipuncture into heparin tubes prior to replacement of patient serum with nonimmune AB human serum and feeding to laboratory-reared Anopheles dirus cracens or An. dirus A mosquitoes via water-jacket artificial membrane feeders or the Hemotek insect feeding system (Hemotek, Blackburn, UK) set to maintain the bloodmeal temperature at 37 °C. […] Cryopreserved human hepatocytes (BioIVT, Baltimore, Maryland, USA) were thawed into InVitroGro CP Medium (BioIVT), quantified for viability by trypan blue dye exclusion, diluted to 800–1000 live cells per microliter, and 18000 live cells were plated into each well of a collagen-coated 384-well plate (Greiner, Monroe, NC, USA) by a 16-channel pipet (Finnpipette, Thermo Fisher Scientific, Waltham, MA). […]

[6] = test system: P. vivax liver-stage parasites; assay: P. vivax liver-stage in vitro assay, radical cure mode; assay type: cell-based, Plasmodium vivax; details: Plasmodium vivax
Method: as §2, §3

[7] = test system: P. cynomolgi schizont (large forms) and hypnozoite (small forms) liver-stage parasites; assay: P. cynomolgi liver-stage in vitro assay in rhesus monkey hepatocytes; assay type: cell-based; details: Plasmodium cynomolgi, Hepatocyte, in Macaca mulatta
Method: as §2

[8] = 1 μM substrate, NADPH, 37 °C, 60 min, single incubation
[9] = control drug, read-out: IC50 (hypnozoites)
[10] = control drug, read-out: IC50 (schizonts)

| Structure (SMILES) | microsomal CLint at 1 μM [1, 8] | microsomal CLint at 1 μM [2, 8] | average individual metabolite formed over a 60 min incubation of 1 [2] | microsomal CLint at 1 μM [3] | average individual metabolite formed over a 60 min incubation of 1 [3] | also measured |
| --- | --- | --- | --- | --- | --- | --- |
| CCN(CC)CCN(CCN(CC)CC)c1cc(OC)c(O)cc1Br [Compound 2, N,N-Bis[2-(diethylamino)ethyl]-2-bromo-4-hydroxy-5-methoxyaniline 1,5-Naphthalenedisulfonate] | < 3 µL/min/mg | 8 µL/min/mg | 15% | 264 µL/min/mg | – | average individual metabolite formed over a 60 min incubation of 1 [1]: 0.2%; CLint of authentic metabolite incubated [3]: highly unstable |
| CCNCCN(CCN(CC)CC)c1cc(OC)c(OC)cc1Br [Compound 3, N-[2-(Ethylamino)ethyl]-N-[2-(diethylamino)ethyl]-2-bromo-4,5-dimethoxyaniline 1,5-Naphthalenedisulfonate] | < 3 µL/min/mg | 19 µL/min/mg | 20% | 24 µL/min/mg | 64% | average individual metabolite formed over a 60 min incubation of 1 [1]: 1.6%; metabolite in urine, percentage of the 1 dose [4]: 1.7%; dose excreted [4]: 3.3% |
| CCNCCN(CCN(CC)CC)c1cc(OC)c(O)cc1Br [Compound 4, N-[2-(Ethylamino)ethyl]-N-[2-(diethylamino)ethyl]-2-bromo-4-hydroxy-5-methoxyaniline 1,5-Naphthalenedisulfonate] | < 3 µL/min/mg | 12 µL/min/mg | 2.4% | 45 µL/min/mg | 6.4% | pIC50 ([5]; Plasmodium vivax, n = 3, read-out: IC50 against schizonts): 5.58; pIC50 ([6]; n = 2, read-out: IC50 against schizonts): 4.81; inhibition at 10 µM ([7]; 10 μM, first run, read-out: inhibition of growth of the schizont (large forms)): 70% |
| CCNCCN(CCNCC)c1cc(OC)c(OC)cc1Br [Compound 5, N,N-Bis[2-(ethylamino)ethyl]-2-bromo-4,5-dimethoxyaniline 1,5-naphthalenedisulfonate] | 6 µL/min/mg | 7.3 µL/min/mg | 1.4% | 4.4 µL/min/mg | 25% | metabolite in urine, percentage of the 1 dose [4]: 1.2%; dose excreted [4]: 3% |
| Br.Br.Br.CCN(CC)CCN(CCN(CC)CC)c1cc(O)c(OC)cc1Br [Compound 6, N,N-Bis[2-(diethylamino)ethyl]-2-bromo-5-hydroxy-4-methoxyaniline trihydrobromide] | – | – | – | – | – | CLint of authentic metabolite incubated [1, 8]: very unstable; also recorded: highly unstable in all species; CLint of authentic metabolite incubated [2, 8]: very unstable; also recorded: highly unstable in all species; CLint of authentic metabolite incubated [3]: very unstable; also recorded: highly unstable in all species |
| CNC(=O)c1ccc(-c2cnc3cnc(C(=O)N(C)c4ccc(Cl)cc4)cn23)cc1 [KDU691, reference compound] | – | – | – | – | – | pIC50 [5, 9]: 7.27; pIC50 [5, 10]: 7.94 |
| CC[C@@]1([C@@H]2O[C@@H]([C@H]3O[C@@](O)(CO)[C@H](C)C[C@@H]3C)C[C@@H]2C)CC[C@H]([C@]2(C)CC[C@]3(C[C@H](O)[C@@H](C)[C@@H]([C@@H](C)[C@@H](OC)[C@H](C)C(=O)O)O3)O2)O1 [monensin, reference compound] | – | – | – | – | – | pIC50 [6, 9]: 6.99; pIC50 [6, 10]: 7.91 |
| COc1cc(NC(C)CCCN)c2ncccc2c1 (centres unmarked) [primaquine] | – | – | – | – | – | pIC50 ([7]; read-out: IC50 against the hypnozoite (small forms)): 5.57; pIC50 ([7]; read-out: IC50 against the schizont (large forms)): 5.96 |

Source: publication PMC9016807, “Metabolic, Pharmacokinetic, and Activity Profile of the Liver Stage Antimalarial (RC-12)” (ACS Omega, 2022)
